Results from US4443436A, “C-20-Modified macrolide derivatives of the macrolide antibiotics tylosin, desmycosin, macrocin, and lactenocin” (Eli Lilly and Company, priority 1982, dated 1984).
Values after ≈ are worked out from the molar mass of the structure shown.

Experiments:
[1] = system: Staphylococcus aureus X1.1; assay: MIC, standard agar-dilution assay, Staphylococcus aureus X1.1; type: cell-based; conditions: Staphylococcus aureus X1.1; agar dilution
[2] = system: Staphylococcus aureus V41; assay: MIC, standard agar-dilution assay, Staphylococcus aureus V41; type: cell-based; conditions: Staphylococcus aureus V41; penicillin-resistant strain; agar dilution
[3] = system: Staphylococcus aureus X400; assay: MIC, standard agar-dilution assay, Staphylococcus aureus X400; type: cell-based; conditions: Staphylococcus aureus X400; methicillin-resistant strain; agar dilution
[4] = system: Staphylococcus aureus S13E; assay: MIC, standard agar-dilution assay, Staphylococcus aureus S13E; type: cell-based; conditions: Staphylococcus aureus S13E; agar dilution
[5] = system: Staphylococcus epidermidis EPI1; assay: MIC, standard agar-dilution assay, Staphylococcus epidermidis EPI1; type: cell-based; conditions: Staphylococcus epidermidis EPI1; agar dilution
[6] = system: Staphylococcus epidermidis EPI2; assay: MIC, standard agar-dilution assay, Staphylococcus epidermidis EPI2; type: cell-based; conditions: Staphylococcus epidermidis EPI2; agar dilution
[7] = system: Streptococcus pyogenes C203; assay: MIC, standard agar-dilution assay, Streptococcus pyogenes C203; type: cell-based; conditions: Streptococcus pyogenes C203; agar dilution
[8] = system: Streptococcus pneumoniae Park I; assay: microbe, parasite or virus in culture; type: cell-based; conditions: Streptococcus pneumoniae Park I; agar dilution
[9] = system: Streptococcus Group D X66; assay: MIC, standard agar-dilution assay, Streptococcus Group D X66; type: cell-based; conditions: Streptococcus Group D X66; agar dilution
[10] = system: Streptococcus Group 9960; assay: MIC, standard agar-dilution assay, Streptococcus Group 9960; type: cell-based; conditions: Streptococcus Group 9960; agar dilution
[11] = system: Haemophilus influenzae Holt; assay: MIC, standard agar-dilution assay, Haemophilus influenzae Holt; type: cell-based; conditions: Haemophilus influenzae Holt; ampicillin-sensitive strain; agar dilution
[12] = system: Haemophilus influenzae R252; assay: MIC, standard agar-dilution assay, Haemophilus influenzae R252; type: cell-based; conditions: Haemophilus influenzae R252; ampicillin-resistant strain; agar dilution
[13] = system: Staphylococcus aureus; assay: MIC, broth-dilution microtiter test, Staphylococcus aureus; type: cell-based; conditions: broth-dilution microtiter
Excerpt: (§1) The MIC's in Table X were obtained using conventional broth-dilution microtiter tests.

[14] = system: Streptococcus bovis 80; assay: MIC, broth-dilution microtiter test, Streptococcus bovis 80; type: cell-based; conditions: Streptococcus bovis 80; broth-dilution microtiter
Excerpt: as §1

[15] = system: Pasteurella multocida 17E; assay: MIC, broth-dilution microtiter test, Pasteurella multocida 17E; type: cell-based; conditions: Pasteurella multocida 17E; bovine isolate; broth-dilution microtiter
Excerpt: as §1

[16] = system: Pasteurella multocida 60A; assay: MIC, broth-dilution microtiter test, Pasteurella multocida 60A; type: cell-based; conditions: Pasteurella multocida 60A; avian isolate; broth-dilution microtiter
Excerpt: as §1

[17] = system: Pasteurella hemolytica 22C; assay: MIC, broth-dilution microtiter test, Pasteurella hemolytica 22C; type: cell-based; conditions: Pasteurella hemolytica 22C; broth-dilution microtiter
Excerpt: as §1

[18] = system: Mycoplasma gallisepticum; assay: MIC, broth-dilution microtiter test, Mycoplasma gallisepticum; type: cell-based; conditions: Mycoplasma gallisepticum; broth-dilution microtiter
Excerpt: as §1

[19] = system: Mycoplasma synoviae; assay: MIC, broth-dilution microtiter test, Mycoplasma synoviae; type: cell-based; conditions: Mycoplasma synoviae; broth-dilution microtiter
Excerpt: as §1

[20] = system: Mycoplasma hyorhinis; assay: MIC, broth-dilution microtiter test, Mycoplasma hyorhinis; type: cell-based; conditions: Mycoplasma hyorhinis; broth-dilution microtiter
Excerpt: as §1

[21] = system: Mycoplasma hyopneumoniae; assay: MIC, broth-dilution microtiter test, Mycoplasma hyopneumoniae; type: cell-based; conditions: Mycoplasma hyopneumoniae; broth-dilution microtiter
Excerpt: as §1

[22] = system: Streptococcus pyogenes C203; assay: In vivo protection of mice experimentally infected with S. pyogenes C203; conditions: mice, doses given 1 and 4 hours post-infection
Method: The C-20 modified derivatives of this invention have shown in vivo antimicrobial activity against experimentally-induced infections in laboratory animals. When two doses of test compound were administered to mice experimentally infected with S. pyogenes C203, the activity observed was measured as an ED50 value [effective dose in mg/kg to protect 50% of the test animals: see Warren Wick, et al., J. Bacteriol. 81, 233-235 (1961)].

[23] = system: Pasteurella multocida; assay: Subcutaneous treatment of Pasteurella multocida-infected chicks; type: in vivo, one-day-old chicks; conditions: 30 mg/kg × 2, 1 and 4 hours post-challenge
Procedure, shortened: (§2)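 Dosing either by gavage at 1 and 5 h after infection, or subcutaneously at 30 mg/kg at 1 and 4 h after infection. Birds were day-old chicks infected s.c. with 0.1 ml of avian Pasteurella multocida culture (twenty-hour tryptose broth, diluted 10^-4).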

[24] = system: Pasteurella multocida; assay: Oral (gavage) treatment of Pasteurella multocida-infected chicks; type: in vivo, one-day-old chicks
Procedure, shortened: as §2

[25] = system: Mycoplasma gallisepticum; assay: Antimycoplasmal activity in chicks infected with Mycoplasma gallisepticum; type: in vivo, two- to three-day-old chicks; conditions: gavage five times, equivalent to 0.5 g/gal
Method: In these tests infections were induced in chicks by injecting 0.2 ml of a broth culture of M. gallisepticum into the abdominal air sac of two- to three-day-old chicks. The compounds were administered by gavage five times at a dose equivalent to 0.5 g/gal (on the day of challenge once prior to and once following the challenge, two times on the next day and once on the third day). Twenty-one days post-infection, the chicks were weighed, a blood sample was taken, and the chicks were sacrificed. The presence or absence of air-sac lesions was recorded.

[26] = Plasma level after oral administration to dogs; conditions: female mongrel dogs; single 15 mg/kg oral dose

CC[C@H]1OC(=O)C[C@@H](O)[C@H](C)[C@@H](O[C@@H]2O[C@H](C)[C@H](O)[C@H](N(C)C)[C@H]2O)[C@@H](CCOc2ccccc2)C[C@@H](C)C(=O)/C=C/C(C)=C/[C@@H]1COC1O[C@H](C)[C@@H](O)[C@@H](OC)[C@H]1OC (stereo partly shown) [Compound 33, 20-DH-20-O-Phenyldesmycosin]
MIC [1]: 0.25 µg/mL (≈ 0.294 µM)
MIC [2]: 0.25 µg/mL (≈ 0.294 µM)
MIC [3]: 0.25 µg/mL (≈ 0.294 µM)
MIC [4]: 0.25 µg/mL (≈ 0.294 µM)
MIC [5]: 0.25 µg/mL (≈ 0.294 µM)
MIC [6]: 0.12 µg/mL (≈ 0.141 µM)
MIC [7]: 2 µg/mL (≈ 2.35 µM)
MIC [8]: 2 µg/mL (≈ 2.35 µM)
MIC [9]: 8 µg/mL (≈ 9.41 µM)
MIC [10]: 16 µg/mL (≈ 18.8 µM)
MIC [11]: 32 µg/mL (≈ 37.6 µM)
MIC [12]: 32 µg/mL (≈ 37.6 µM)
MIC [13]: 0.39 µg/mL (≈ 0.459 µM)
MIC [14]: 6.25 µg/mL (≈ 7.35 µM)
MIC [15]: 12.5 µg/mL (≈ 14.7 µM)
MIC [16]: 12.5 µg/mL (≈ 14.7 µM)
MIC [17]: 25 µg/mL (≈ 29.4 µM)
MIC [18]: 0.39 µg/mL (≈ 0.459 µM)
MIC [19]: 1.56 µg/mL (≈ 1.84 µM)
MIC [20]: 25 µg/mL (≈ 29.4 µM)
MIC [21]: 25 µg/mL (≈ 29.4 µM)
ED50, Oral ([22]; oral): 9 mg/kg × 2
ED50, Subcutaneous ([22]; subcutaneous): 1.5 mg/kg × 2
Number of Deaths/Number Treated [23]: 10/10
Number of Deaths/Number tested ([24]; 1.0 g/gal equivalent): 9/9
Number of Deaths/Number tested ([24]; 2.0 g/gal equivalent): 3/9
Number of Deaths/Number tested ([24]; 2.0 g/gal equivalent, 13/20 infected nonmedicated chicks died in this test): 7/10
Number with Antibodies/Number Tested ([25]; antibodies to M. gallisepticum, 21 days post-infection): 10/10
Mortality [25]: 0/10
Number with Air-Sac Lesions/Number Treated ([25]; 21 days post-infection): 2/10
peak plasma level [26]: 2.1 µg/mL
